{"source": "the NIST ThermoML archive (doi:10.1016/j.tca.2010.10.002)", "conditions": "Liquid, DSC", "note": "Numbers after ± are expanded uncertainties."}
{"smiles": "CCCCCCCC/C=C\\CCCCCCCC(=O)OCC", "note": "[ethyl (Z)-9-octadeceneoate]", "values": [{"measurement": "vapor or sublimation pressure", "setting": "514.61 K", "result": "5.333 ± 0.53", "unit": "kPa"}, {"measurement": "vapor or sublimation pressure", "setting": "536.83 K", "result": "9.333 ± 0.94", "unit": "kPa"}]}
{"smiles": "CCCCCCCCCCCCCCCC(=O)OCC", "note": "[ethyl hexadecanoate]", "values": [{"measurement": "vapor or sublimation pressure", "setting": "502.27 K", "result": "5.333 ± 0.53", "unit": "kPa"}, {"measurement": "vapor or sublimation pressure", "setting": "515.13 K", "result": "9.333 ± 0.93", "unit": "kPa"}]}
{"smiles": "CCCCC/C=C\\C/C=C\\CCCCCCCC(=O)OCC", "note": "[ethyl linoleate]", "values": [{"measurement": "vapor or sublimation pressure", "setting": "537.69 K", "result": "9.333 ± 0.93", "unit": "kPa"}]}
{"smiles": "CCCCCCCCCCCCCCCCCC(=O)OCC", "note": "[ethyl octadecanoate]", "values": [{"measurement": "vapor or sublimation pressure", "setting": "520.56 K", "result": "5.333 ± 0.53", "unit": "kPa"}]}
{"smiles": "CCCCCCCCCCCCCCCC(=O)OC", "note": "[methyl hexadecanoate]", "values": [{"measurement": "vapor or sublimation pressure", "setting": "486.57 K", "result": "4 ± 0.4", "unit": "kPa"}]}
{"smiles": "CCCCCCCCCCCCCC(=O)OC", "note": "[methyl tetradecanoate]", "values": [{"measurement": "vapor or sublimation pressure", "setting": "459.62 K", "result": "4 ± 0.4", "unit": "kPa"}]}
